Experimental data from patent US11059830B2, “Compounds that participate in cooperative binding and uses thereof” (Revolution Medicines, Inc., priority 2015, dated 2021).

How the values were obtained:
[1] = biological target: T1, FKBP12 (Homo sapiens (Human), UniProt P62942); test: SPR binding of compound (analyte) to immobilized FKBP12 (Example 7); details: 25° C., 12×HIS tagged FKBP12 immobilized on NTA chip; read-out: SPR affinity to FKBP12: KD
Protocol: This protocol utilizes Surface Plasmon Resonance (SPR) as a method to determine kinetics (KD, Ka, Kd) for the binding of compound (analyte) to immobilized FKBP12 (ligand).
Compound in 100% DMSO (in-house), 10×HBS-P+ buffer (GE Healthcare BR-1006-71), Assay buffer (1×HBS-P+ buffer, 1% DMSO), 12×HIS tagged FKBP12 (in-house).
(§1) Experiments are performed at 25° C. Stock solution of 12×HIS tagged FKBP12 is diluted to 100 nM in assay buffer (1% DMSO final). Approximately 500-600 RU of FKBP12 is immobilized on one of two flow cells of an activated NTA chip. The second flow cell is not activated as a reference for non-specific interaction of the analyte to the sensor chip. Various concentrations of compound (1 nM-1 μM range), serially diluted into the same assay buffer (1% DMSO final), are injected onto the FKBP12 surface and reference surface at a flow rate of 10 μl/min. The surface is regenerated between analyte injections with 350 mM EDTA.
(§2) The BiaEvaluation software program is used for data fitting. All data is reference subtracted against both the reference flow cell and a buffer injection. For kinetic analyses, data is locally fit to a 1:1 interaction model.

[2] = biological target: T1, FKBP12; test: AlphaLISA FKBP12 binding: inhibition of binding of biotinylated FK506 to FLAG tagged FKBP12; details: read-out: Binding affinity to FKBP12 (by displacement of FK506)
Excerpt: The binding of compounds of the invention to FKBP12 can be determined using the following protocol.
This protocol utilizes Perkin Elmers AlphaLISA technology platform to detect FKBP binders by measuring the inhibition of binding of biotinylated FK506 to FLAG tagged FKBP12.
10×TBST Buffer (Boston BioProducts IBB-181), Biotinylated FK506 (in-house), FLAG tagged FKBP (in-house); anti-FLAG Donor beads (Perkin Elmer AS103) and Streptavidin Acceptor beads (Perkin Elmer AL125); Compounds in DMSO (in-house), FK506.
Experimental Protocol/Description of Assay: Add 20 uL of 12.5 nM FKBP-FLAG working stock to each well of the 96-well plate. Add 1 uL of test compound (100% DMSO) to each well of the plate using the Janus MTD head and P20 tips (except control wells). Add 1 uL of DMSO to negative control wells and 1 uL of 50 uM FK506 solution to positive control wells. In the dark, add 20 uL of combined Donor/Acceptor beads to each well. Incubate in the dark for 30 minutes at room temperature. In the dark, add 10 uL of 5 nM biotinylated FK506 working stock to each well. Incubate in the dark for 60 minutes at room temperature. Protect plate from light until reading on Biotek Synergy2 Plate Reader; Alphalisa 96-well protocol (680 excitation/615 emission).

[3] = tested on: HeLa-FKBP12 cells; test: Biosensor cell permeability assay (FKBP destabilizing mutant, whole cell); assay type: cell-based; details: 72 hrs
Protocol: Cell permeability of compounds can be determined using the following protocol.
This protocol utilizes a modified FKBP or cyclophilin destabilizing mutant to determine the bioactivity of FKBP binding compounds or cyclophilin binding compounds in whole cell assay.
DMEM, DMEM without Phenol Red, 10% FBS, 1× Sodium Pyruvate, 1× Glutamax. Add 125 ul of media with compound per well.
Experimental Protocol/Description of Assay: Plate HeLa-FKBP12 cells (for FKBP binding compounds) or HeLa-CyclophilinA cells (for cyclophilin binding compounds) and seed overnight at 5k/well (approximately −18 hrs.). Using a multi-channel pipet, take out the old media and add ˜125 ul of new media with compounds. Compounds are diluted using DMEM without Phenol Red, 10% FBS, 1× Sodium Pyruvate, lx Glutamax. Add 125 ul of media with compound per well. Cells are treated with compounds at concentration: 30, 10, 3.33, 1.11, 0.37, 0.12, 0.04 and 0.013 uM. Time points are taken at 72 hrs and plate read using plate reader with excitation/emission: 575/620.
Cell binding/permeability is calculated in fold-change (Total RFU of treated samples/total RFU of DMSO treated samples or total RFU above background (Total RFU minus total RFU of DMSO treated samples).

[4] = biological target: T1, FKBP12; test: SPR kinetics of Compound 2 and Compound 6 binding to immobilized FKBP12 (Example 8); details: compound to immobilized FKBP12, 25° C.
Protocol: This protocol utilizes Surface Plasmon Resonance (SPR) as a method to determine kinetics (KD, Ka, Kd) for the binding of Compound 2 and Compound 6 (analyte) to immobilized FKBP12 (ligand).
Compound 2 and Compound 6 in 100% DMSO (in-house), 10×HBS-P+ buffer (GE Healthcare BR-1006-71), Assay buffer (1×HBS-P+ buffer, 1% DMSO), 12×HIS tagged FKBP12 (in-house).
as §1, with “Compound 2 or Compound 6” for “compound”
as §2

[5] = biological target: CEP25029.4 (residues 1982-2231) (Homo sapiens (Human), UniProt P62942+Q9BV73); test: ITC binding of FKBP12-compound binary complex to CEP250
Chain of CEP25029.4 (residues 1982-2231) (Q9BV73 1982-2231): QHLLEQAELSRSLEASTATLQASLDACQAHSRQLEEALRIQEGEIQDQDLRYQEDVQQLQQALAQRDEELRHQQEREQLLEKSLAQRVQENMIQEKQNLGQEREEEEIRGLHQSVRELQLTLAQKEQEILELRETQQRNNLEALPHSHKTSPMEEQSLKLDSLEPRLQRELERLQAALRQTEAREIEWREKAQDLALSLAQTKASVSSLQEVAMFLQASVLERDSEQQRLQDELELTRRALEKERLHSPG
Chain of CEP25029.4 (residues 1982-2231) (P62942 whole entry, the tested form may be a part): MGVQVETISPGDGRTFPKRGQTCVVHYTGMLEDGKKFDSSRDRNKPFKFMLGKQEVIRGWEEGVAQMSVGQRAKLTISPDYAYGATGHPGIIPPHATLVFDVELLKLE
Protocol: (§3) This protocol utilizes Isothermal Titration Calorimetry (ITC) to directly measure the heat change associated with binding of FKBP12-Compound 2 and FKBP12-Compound 6 binary complexes to CEP250. Measurement of the heat change allows accurate determination of association constants (Ka), reaction stoichiometry (N), and the change in binding enthalpy (ΔH).
(§4) Compound 2 and Compound 6 in 100% DMSO (in-house), Protein Buffer (10 mM HEPES, pH 7.5, 75 mM NaCl, 0.5 mM TCEP), assay buffer (protein buffer+1% DMSO), FKBP12 (in-house), CEP25029.4 (residues 1982-2231) and CEP25011.4 (residues 2134-2231) (in-house).
(§5) MicroCal™ ITC200 (GE Healthcare) Experimental Protocol: FKBP12 stock solution was diluted to 10 μM in assay buffer (1% DMSO final). Compound was added to FKBP12 to 20 μM (1% DMSO final), and binary complex was filled into the reaction cell of the ITC device after 5-10 min pre-incubation time. CEP250 protein stocks were diluted to 50 μM in assay buffer and supplemented with 20 μM compound (1% DMSO final) before being filled into the injection syringe. A control experiment in the absence of compound was also run to determine the heat associated with operational artifacts and the dilution of titrant as it was injected from the syringe into the reaction cell.

[6] = biological target: CEP25011.4 (residues 2134-2231) (Homo sapiens (Human), UniProt P62942+Q9BV73); test: as above
Chain of CEP25011.4 (residues 2134-2231) (Q9BV73 2134-2231): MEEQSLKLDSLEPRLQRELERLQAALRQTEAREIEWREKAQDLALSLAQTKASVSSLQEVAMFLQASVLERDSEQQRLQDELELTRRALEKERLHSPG
Chain of CEP25011.4 (residues 2134-2231) (P62942 whole entry, the tested form may be a part): as the sequence (P62942 whole entry, the tested form may be a part) above
Protocol: as §3, §4, §5

T1 sequence (P62942 whole entry): as the sequence (P62942 whole entry, the tested form may be a part) above

SMILES	Kd [1]	IC50 [2]	IC50 [3]	further results
CCC(Cc1ccccc1)C1/C=C/C/C=C/CC(C)C(O)C(C)C2CCC(C)C(O)(CC(=O)N3CCCCC3C(=O)O1)O2 (stereo not shown) [Compound 1]	0.0715 µM	0.355 µM	–	–
CC[C@H](Cc1ccccc1)[C@@H]1CCCCCC(=O)[C@@H](C)[C@H](O)[C@@H](C)[C@@H]2CC[C@@H](C)C(O)(O2)C(=O)C(=O)N2CCCC[C@H]2C(=O)O1 [Compound 10, (S)-1-(2-((2R,3R,6S)-6-((2R,3R,4S,6E,9E,11R,12R)-12-benzyl-3,11-dihydroxy-4-methyl-5-oxotetradeca-6,9-dien-2-yl)-2-hydroxy-3-methyltetrahydro-2H-pyran-2-yl)-2-oxoacetyl)piperidine-2-carboxylic acid C-11 lactone]	–	0.00021 µM	–	–
CC[C@H](Cc1ccccc1)[C@@H]1/C=C/C=C/CC(=O)[C@@H](C)[C@H](O)[C@@H](C)[C@@H]2CC[C@@H](C)C(=O)C(O)(O2)C(=O)N2CCCC[C@H]2C(=O)O1 [Compound 5]	0.007 µM	0.0188 µM	–	–
CC[C@H](Cc1ccccc1)[C@@H]1/C=C/C/C=C/C(=O)[C@@H](C)[C@H](O)[C@@H](C)[C@@H]2CC[C@@H](C)[C@@](O)(O2)C(=O)C(=O)N2CCCC[C@H]2C(=O)O1 [Compound 3]	0.0013 µM	0.00034 µM	–	–
CC[C@H](Cc1cccc(O)c1)[C@@H]1/C=C/C/C=C/C[C@@H](C)[C@H](O)[C@@H](C)[C@@H]2CC[C@@H](C)C(=O)[C@@](O)(O2)C(=O)N2CCCC[C@H]2C(=O)O1 [Compound 7]	–	0.00095 µM	< 1 µM	–
CC[C@H](Cc1cccc(O)c1)[C@@H]1/C=C/C/C=C/C[C@@H](C)[C@H](O)[C@@H](C)[C@@H]2CC[C@@H](C)[C@@](O)(O2)C(=O)C(=O)N2CCCC[C@H]2C(=O)O1 [Compound 8]	–	0.0011 µM	< 1 µM	–
CC[C@H](Cc1ccccc1)[C@@H]1/C=C/C/C=C/C[C@@H](C)C(=O)[C@@H](C)[C@@H]2CC[C@@H](C)[C@@](O)(O2)C(=O)C(=O)N2CCCC[C@H]2C(=O)O1 [Compound 9]	–	0.785 µM	> 1 µM	–
CC[C@H](Cc1ccccc1)[C@@H]1/C=C/C/C=C/C[C@@H](C)[C@H](O)[C@@H](C)[C@@H]2CC[C@@H](C)C(=O)C(O)(O2)C(=O)N2CCC[C@H]2C(=O)O1 [Compound 4]	0.0231 µM	0.0048 µM	–	–
CC[C@H](Cc1ccccc1)[C@@H]1CCCCCC[C@@H](C)[C@H](O)[C@@H](C)[C@@H]2CC[C@@H](C)C(=O)C(O)(O2)C(=O)N2CCCC[C@H]2C(=O)O1 [Compound 6, (2S)-1-((4R,7S)-7-((2R,3S,4R,11 S,12R)-12-benzyl-3,11-dihydroxy-4-methyltetradecan-2-yl)-2-hydroxy-4-methyl-3-oxooxepane-2-carbonyl)piperidine-2-carboxylic acid C-11 lactone]	–	–	–	koff [4]: 0.0088 s⁻¹; kon ([4]; read-out: Ka): 567000 M⁻¹ s⁻¹; Kd [5]: 0.36 µM; ΔH ([5]; ITC, FKBP12 10 μM in cell, CEP25029.4 118 μM in syringe, ligand 20 μM, 298 K): -13.98 kcal/mol; ΔG ([5]; ITC, FKBP12 10 μM, CEP25029.4 118 μM, ligand 20 μM, 298 K, ΔG = −RT ln Ka): -8.781 kcal/mol; −T*ΔS ([5]; ITC, FKBP12 10 μM, CEP25029.4 118 μM, ligand 20 μM, 298 K, −TΔS = ΔG − ΔH): 5.194 kcal/mol; Kd [6]: 0.08 µM; ΔH ([6]; ITC, FKBP12 10 μM in cell, CEP25011.4 68 μM in syringe, ligand 20 μM, 298 K): -11.42 kcal/mol; ΔG ([6]; ITC, FKBP12 10 μM, CEP25011.4 68 μM, ligand 20 μM, 298 K, ΔG = −RT ln Ka): -9.646 kcal/mol; −T*ΔS ([6]; ITC, FKBP12 10 μM, CEP25011.4 68 μM, ligand 20 μM, 298 K, −TΔS = ΔG − ΔH): 1.77 kcal/mol
